#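 Test compounds were applied to cells in 96-well plates for 48 hours at 5 doses. Here, GI50 denotes the concentration required for 50% inhibition of growth. TGI: concentration producing complete growth inhibition.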
# Columns and labels:
# Assay in all cases: NCI tumour cell line growth inhibition, 48 h
# [1] = tested on: ACHN renal
# [2] = tested on: SF-295 CNS
# [3] = tested on: UACC-257 melanoma
# [4] = tested on: DU-145 prostate
# [5] = tested on: U251 CNS
# [6] = tested on: K-562 leukemia
# [7] = tested on: UACC-62 melanoma
# [8] = tested on: SW-620 colon
# [9] = tested on: CAKI-1 renal
# [10] = tested on: OVCAR-4 ovarian
# [11] = tested on: MCF7 breast
# [12] = tested on: HL-60(TB) leukemia
# [13] = tested on: NCI-H23 lung
# [14] = tested on: EKVX NSCLC
# [15] = tested on: TK-10 renal
# [16] = tested on: HCT-15 colon
# [17] = tested on: RXF 393 renal
# [18] = tested on: NCI-H460 lung
# [19] = tested on: 786-0 renal
# [20] = tested on: HS 578T breast
# [21] = tested on: PC-3 prostate
# [22] = tested on: SF-268 CNS
# [23] = tested on: COLO 205 colon
# [24] = tested on: SN12C renal
# [25] = tested on: OVCAR-5 ovarian
# [26] = tested on: UO-31 renal
# [27] = tested on: SK-MEL-5 melanoma
# [28] = tested on: RPMI-8226 leukemia
# [29] = tested on: MDA-MB-435
# [30] = tested on: SF-539 CNS
# [31] = tested on: HOP-92 NSCLC
# [32] = tested on: A549 NSCLC
# [33] = tested on: HCT-116 colon
# [34] = tested on: OVCAR-8 ovarian
# [35] = tested on: A498 renal
# [36] = tested on: NCI-H226 lung
# [37] = tested on: LOX IMVI melanoma
# [38] = tested on: KM12 colon
# [39] = tested on: MOLT-4 leukemia
# [40] = tested on: NCI/ADR-RES ovarian
# [41] = tested on: SR leukemia
# [42] = tested on: HOP-62 NSCLC
# [43] = tested on: SK-OV-3 ovarian
# [44] = tested on: SK-MEL-28 melanoma
# [45] = tested on: IGROV1 ovarian
# [46] = tested on: M14 melanoma
# [47] = tested on: OVCAR-3 ovarian
# [48] = tested on: SNB-75 CNS
# [49] = tested on: NCI-H522 lung
# [50] = tested on: BT-549 breast
# [51] = tested on: MDA-MB-231 breast
# [52] = tested on: HT29 colon
# [53] = tested on: SK-MEL-2 melanoma
# [54] = tested on: SNB-19 CNS
# [55] = tested on: T-47D breast
# [56] = tested on: HCC-2998 colon
# [57] = tested on: MALME-3M melanoma
# [58] = tested on: CCRF-CEM leukemia
smiles,measurement,setting,value
CCOC(=O)c1c(-c2ccccc2)[n+](=O)c2ccc(Cl)cc2n1[O-],GI50,[1],2.93 µM
same,TGI,[1],11.3 µM
same,GI50,[2],4.87 µM
same,TGI,[2],19.1 µM
same,GI50,[3],4.06 µM
same,TGI,[3],16.6 µM
same,GI50,[4],3.22 µM
same,TGI,[4],11.9 µM
same,GI50,[5],2.68 µM
same,TGI,[5],8.57 µM
same,GI50,[6],4.69 µM
same,TGI,[6],18.5 µM
same,GI50,[7],12.5 µM
same,TGI,[7],25.4 µM
same,GI50,[8],5.59 µM
same,TGI,[8],17.7 µM
same,GI50,[9],3.82 µM
same,TGI,[9],13.2 µM
same,GI50,[10],4.25 µM
same,TGI,[10],22.9 µM
same,GI50,[11],5.37 µM
same,TGI,[11],40.6 µM
same,GI50,[12],5.66 µM
same,TGI,[12],20.3 µM
same,GI50,[13],11.2 µM
same,TGI,[13],23.4 µM
same,GI50,[14],2.4 µM
same,TGI,[14],8.32 µM
same,GI50,[15],4.55 µM
same,TGI,[15],23.6 µM
same,GI50,[16],3.89 µM
same,TGI,[16],13.6 µM
same,GI50,[17],19.3 µM
same,TGI,[17],49.5 µM
same,GI50,[18],5.36 µM
same,TGI,[18],17.9 µM
same,GI50,[19],6.98 µM
same,TGI,[19],19.9 µM
same,GI50,[20],4.63 µM
same,TGI,[20],31.8 µM
same,GI50,[21],3.05 µM
same,TGI,[21],12 µM
same,GI50,[22],4.28 µM
same,TGI,[22],32.2 µM
same,GI50,[23],3.89 µM
same,TGI,[23],13.6 µM
same,GI50,[24],3.38 µM
same,TGI,[24],13.1 µM
same,GI50,[25],7.12 µM
same,TGI,[25],20.2 µM
same,GI50,[26],1.92 µM
same,TGI,[26],3.69 µM
same,GI50,[27],1.63 µM
same,TGI,[27],3.33 µM
same,GI50,[28],2.44 µM
same,TGI,[28],6.62 µM
same,GI50,[29],10.2 µM
same,TGI,[29],26.4 µM
same,GI50,[30],2.97 µM
same,TGI,[30],13.1 µM
same,GI50,[31],1.93 µM
same,TGI,[31],4.91 µM
same,GI50,[32],8.46 µM
same,TGI,[32],20.6 µM
same,GI50,[33],3.72 µM
same,TGI,[33],16.4 µM
same,GI50,[34],4.46 µM
same,TGI,[34],16.8 µM
same,GI50,[35],12.7 µM
same,TGI,[35],26.2 µM
same,GI50,[36],5.2 µM
same,TGI,[36],17.4 µM
same,GI50,[37],1.66 µM
same,TGI,[37],3.91 µM
same,GI50,[38],5.43 µM
same,TGI,[38],18 µM
same,GI50,[39],4.93 µM
same,TGI,[39],45.6 µM
same,GI50,[40],5.27 µM
same,TGI,[40],18.1 µM
same,GI50,[41],2.59 µM
same,TGI,[41],11 µM
same,GI50,[42],8.64 µM
same,TGI,[42],20.8 µM
same,GI50,[43],15.5 µM
same,TGI,[43],> 100 µM
same,GI50,[44],18 µM
same,TGI,[44],52.7 µM
same,GI50,[45],3.93 µM
same,TGI,[45],16.5 µM
same,GI50,[46],10.1 µM
same,TGI,[46],21.7 µM
same,GI50,[47],3.88 µM
same,TGI,[47],15.8 µM
same,GI50,[48],3.18 µM
same,TGI,[48],18.8 µM
same,GI50,[49],> 100 µM
same,TGI,[49],> 100 µM
same,GI50,[50],3.87 µM
same,TGI,[50],15.7 µM
same,GI50,[51],3.58 µM
same,TGI,[51],13.8 µM
same,GI50,[52],11 µM
same,TGI,[52],23 µM
same,GI50,[53],40 µM
same,TGI,[53],> 100 µM
same,GI50,[54],10.4 µM
same,TGI,[54],> 100 µM
O=S(=O)(/N=C(\NO)Nc1ccc(Cl)cc1)c1ccc(S(=O)(=O)c2ccccc2)s1,TGI,[1],89.3 µM
same,TGI,[2],> 100 µM
same,TGI,[3],41 µM
same,TGI,[4],46 µM
same,TGI,[5],60.3 µM
same,TGI,[6],40.3 µM
same,TGI,[7],33.7 µM
same,TGI,[8],> 100 µM
same,TGI,[9],91.4 µM
same,TGI,[10],93.8 µM
same,TGI,[11],> 100 µM
same,TGI,[12],50.6 µM
same,TGI,[13],52.1 µM
same,TGI,[14],51.5 µM
same,TGI,[15],66.3 µM
same,TGI,[16],> 100 µM
same,TGI,[17],87.7 µM
same,TGI,[18],29.1 µM
same,TGI,[19],> 100 µM
same,TGI,[20],96.9 µM
same,TGI,[21],> 100 µM
same,TGI,[55],96.3 µM
same,TGI,[22],90.7 µM
same,TGI,[23],34.6 µM
same,TGI,[24],39.9 µM
same,TGI,[25],63.7 µM
same,TGI,[26],53.8 µM
same,TGI,[27],24.5 µM
same,TGI,[28],35.8 µM
same,TGI,[29],37.3 µM
same,TGI,[30],63.7 µM
same,TGI,[31],31.3 µM
same,TGI,[32],> 100 µM
same,TGI,[33],30.4 µM
same,TGI,[34],89.6 µM
same,TGI,[35],41.8 µM
same,TGI,[56],29.7 µM
same,TGI,[57],41.9 µM
same,TGI,[36],52.1 µM
same,TGI,[37],29.3 µM
same,TGI,[58],51.6 µM
same,TGI,[38],60.4 µM
same,TGI,[39],35.9 µM
same,TGI,[40],> 100 µM
same,TGI,[42],82.8 µM
same,TGI,[44],40.7 µM
same,TGI,[45],39.8 µM
same,TGI,[46],37.4 µM
same,TGI,[47],55.9 µM
same,TGI,[49],37.7 µM
same,TGI,[50],44.7 µM
same,TGI,[51],86.2 µM
same,TGI,[52],57.7 µM
same,TGI,[53],37.4 µM
same,TGI,[54],> 100 µM

# From PubChem BioAssay (NCI)
